# Experimental data: patent US20220298098A1, “HALOGENATED COMPOUNDS, PROCESS AND USES THEREOF” (Ciimar - Centro Interdisciplinar De Investigaçäo Marinha E …, priority 2019, published 2022)
# Where two headings read alike, the source gives them in different places.
# Columns and labels:
# [1] = system: coagulase-negative staphylococci; test: Biofilm formation inhibition, quantification of total biomass by violet crystal staining; assay type: cell-based; conditions: for IC50: read-out: calculated concentration that inhibits the biofilm formation by 50%
# Procedure: The biofilm forming ability of coagulase-negative staphylococci, when exposed to compounds 1, 2, 9 and 16, was assessed by quantification of total biomass by violet crystal staining.
# [2] = system: Staphylococcus aureus S54F9; test: Broth microdilution antibiotic susceptibility test; assay type: cell-based
# Procedure: The methanolic extract was submitted to solid phase extraction (Waters Sep-Pak® Vac 35 cc 10 g C18 Cartridges) using mixtures of water/methanol (4:1 to 1:4; 4 to 8 column volumes each), yielding an enriched fraction free of chlorophylls and other pigments. The fraction was then chromatographed using semi-preparative HPLC conditions with a gradient of water/acetonitrile 19:1 to 0:1 (both with 0.1% of formic acid) as mobile phase. Fractions were collected every 30 s (total run time of 70 min) and 140 fractions were collected into 96-well deep well plates, and a 25% of a 67 mg 140-well fractionation was tested against Staphylococcus aureus S54F9. In order to carry out this broth microdilution antibiotic susceptibility test, 50 μL of each HPLC fraction resuspended in 14% MeOH in water were mixed with 50 μL of the S. aureus suspension at 10^6 CFU/mL in 2×MHB in a microtiter plate (final desired inoculum=5·10^5 CFU/mL, final concentration of MeOH in bioassay plate=7%, final volume per well=100 μL). The microtiter plate was replicated onto a selective/differential solid medium (Manitol Salt Agar) in order to distinguish between bacteriostatic and bactericidal activities. Growth controls (broth with bacterial inoculum, no bioactive molecule) as well as sterility (broth only) and solvent controls (broth with 7% MeOH in water) were included.
# [3] = coagulase-negative staphylococci biofilm
# [4] = S54F9, calculated from the antibiotic activities of the fractions in FIG. 1, range across compounds 1, 2, 9 and 16, read-out: predicted minimal inhibitory concentrations (MICs) against S. aureus
smiles,measurement,setting,value
"C[C@H](OC(=O)CCCCCCCCCCCCl)C(=O)O [Compound 1, (S)-2-[(12-chlorododecanoyl)oxy]propanoic acid]",inhibition at 70 µg/mL,"[1]; biofilm formation, 70 mg/L",0%
same,inhibition at 140 µg/mL,"[1]; biofilm formation, 140 mg/L",74%
same,IC50,[1]; [3],55.1 µg/mL
same,MIC,[2]; [4],1790 to 5790 µg/mL
"CCCCCCC(Cl)CCCCC(=O)O[C@@H](C)C(=O)O (stereo partly drawn) [Compound 2, (S)-2-[(6-chlorododecanoyl)oxy]propanoic acid]",inhibition at 16 µg/mL,"[1]; biofilm formation, 16 mg/L",0%
same,inhibition at 32.12 µg/mL,"[1]; biofilm formation, 32.12 mg/L",31%
same,inhibition at 64.25 µg/mL,"[1]; biofilm formation, 64.25 mg/L",74%
same,inhibition at 128.5 µg/mL,"[1]; biofilm formation, 128.5 mg/L",89%
same,inhibition at 257 µg/mL,"[1]; biofilm formation, 257 mg/L",90%
same,IC50,[1]; [3],94.6 µg/mL
same,MIC,[2]; [4],1790 to 5790 µg/mL
"C[C@H](OC(=O)CCCCC(Cl)CCCCCCCl)C(=O)O (stereo partly drawn) [Compound 9, (S)-2-[(6,12-dichlorododecanoyl)oxy]propanoic acid]",inhibition at 5.65 µg/mL,"[1]; biofilm formation, 5.65 mg/L",0%
same,inhibition at 11.25 µg/mL,"[1]; biofilm formation, 11.25 mg/L",22%
same,inhibition at 22.5 µg/mL,"[1]; biofilm formation, 22.5 mg/L",56%
same,inhibition at 35 µg/mL,"[1]; biofilm formation, 35 mg/L",62%
same,inhibition at 90 µg/mL,"[1]; biofilm formation, 90 mg/L",66%
same,inhibition at 180 µg/mL,"[1]; biofilm formation, 180 mg/L",76%
same,inhibition at 360 µg/mL,"[1]; biofilm formation, 360 mg/L",87%
same,inhibition at 721 µg/mL,"[1]; biofilm formation, 721 mg/L",88%
same,IC50,[1]; [3],20.1 µg/mL
same,MIC,[2]; [4],1790 to 5790 µg/mL
"C[C@H](OC(=O)CCCCC(Cl)CCCCCC(Cl)Cl)C(=O)O (stereo partly drawn) [Compound 16, (S)-2-[(6,12,12-trichlorododecanoyl)oxy]propanoic acid]",inhibition at 37.5 µg/mL,[1],0%
same,inhibition at 75 µg/mL,[1],68%
same,inhibition at 150 µg/mL,[1],71%
same,IC50,[1],43.4 µg/mL
same,MIC,"[2]; S54F9, read-out: predicted minimal inhibitory concentrations (MICs) against S. aureus",1790 to 5790 µg/mL
